This is an account of results in patent publication US7288659B2, “Acylaminothiazole derivatives, their preparation and therapeutic use” (Sanofi-Aventis, priority 2001, dated 2007).

Structures can show the parent of a compound that is named as a salt.

As usually defined, the melting point is the temperature, or range, at which the solid turns liquid. `COCc1ccccc1-c1cnc(NC(=O)C(C)NC(=O)Cc2cc(F)cc(F)c2)s1` (stereo not drawn) [compound 13, 2-{[2-(3,5-difluorophenyl)acetyl]amino}-N-{5-[2-(methoxymethyl)phenyl]-1,3-thiazol-2-yl}propanamide] came in with a melting point of 194 °C.

`C[C@H](NC(=O)C(=O)c1cc(F)cc(F)c1)C(=O)Nc1ncc(-c2ccccc2COC2CCCCC2)s1` [Compound No. 61, (2S)-N-(5-{2-[(cyclohexyloxy)methyl]phenyl}-1,3-thiazol-2-yl)-2-{[2-(3,5-difluorophenyl)-2-oxoacetyl]-amino}propanamide] displayed a melting point of 78 °C.

For `CCC[C@H](NC(=O)[C@@H](O)c1cc(F)cc(F)c1)C(=O)Nc1ncc(-c2ccccc2COC2CCCCC2)s1` [compound 55, (2S)-N-(5-{2-[(cyclohexyloxy)methyl]phenyl}-1,3-thiazol-2-yl)-2-{[(2S)-2-(3,5-difluorophenyl)-2-hydroxyacetyl]amino}pentanamide], the melting point was found to be 141 °C.

`CC(NC(=O)Cc1cc(F)cc(F)c1)C(=O)Nc1ncc(-c2ccccc2COCc2ccccc2)s1` (stereo not drawn) [Compound No. 6, N-(5-{2-[(benzyloxy)methyl]phenyl}-1,3-thiazol-2-yl)-2-{[2-(3,5-difluorophenyl)acetyl]amino}propanamide] yielded a melting point of 147 °C.

In turn, `C[C@H](NC(=O)Cc1cc(F)cc(F)c1)C(=O)Nc1ncc(-c2cccc(COC3CCCCC3)c2)s1` [compound 24, (2S)-N-(5-{3-[(cyclohexyloxy)methyl]phenyl}-1,3-thiazol-2-yl)-2-{[2-(3,5-difluorophenyl)acetyl]amino}-propanamide] gave a melting point of 123 °C.

Regarding `CC(NC(=O)Cc1ccccc1)C(=O)Nc1ncc(-c2ccccc2COC2CCCCC2)s1` (stereo not drawn) [compound 11, N-(5-{2-[(cyclohexyloxy)methyl]phenyl}-1,3-thiazol-2-yl}-2-[(2-phenylacetyl)amino]propanamide], the melting point turned out to be 162 °C.

`Cc1nc(NC(=O)[C@H](C)NC(=O)Cc2cc(F)cc(F)c2)sc1-c1ccccc1COC1CCCC1` [compound 28, (2S)-N-(5-{2-[(cyclopentyloxy)methyl]phenyl}-4-methyl-1,3-thiazol-2-yl)-2-{[2-(3,5-difluorophenyl)-acetyl]amino}propanamide]: the melting point came out at 141 °C.

`CCC[C@H](NC(=O)C(F)(F)c1cc(F)cc(F)c1)C(=O)Nc1ncc(-c2ccccc2COC2CCCCC2)s1` [compound 74, (2S)-N-(5-{2-[(cyclohexyloxy)methyl]phenyl}-1,3-thiazol-2-yl)-2-{[2-(3,5-difluorophenyl)-2,2-difluoroacetyl]amino}pentanamide]: the melting point was 68 °C.

Compound `C[C@H](NC(=O)Cc1ccc(F)c(F)c1)C(=O)Nc1ncc(-c2ccccc2COC2CCCCC2)s1` [compound 30, (2S)-N-(5-{2-[(cyclohexyloxy)methyl]phenyl}-1,3-thiazol-2-yl)-2-{[2-(3,4-difluorophenyl)acetyl]amino}-propanamide] showed a melting point of 136 °C.

`COc1cc(CC(=O)N[C@@H](C)C(=O)Nc2ncc(-c3ccccc3COC3CCCCC3)s2)cc(OC)c1` [compound 35, (2S)-N-(5-{2-[(cyclohexyloxy)methyl]phenyl}-1,3-thiazol-2-yl)-2-{[2-(3,5-dimethoxyphenyl)acetyl]amino}-propanamide]: the melting point turned out to be 73 °C.

With `C[C@H](NC(=O)[C@H](F)c1cc(F)cc(F)c1)C(=O)Nc1ncc(-c2ccccc2COC2CCCCC2)s1` (racemic) [Compound No. 65, (2S)-N-(5-{2-[(cyclohexyloxy)methyl]phenyl}-1,3-thiazol-2-yl)-2-{[(2R)-2-(3,5-difluorophenyl)-2-fluoroacetyl]amino}propanamide], the melting point was 78 °C.

Regarding `CC(C)OCc1cccc(-c2cnc(NC(=O)[C@H](C)NC(=O)Cc3cc(F)cc(F)c3)s2)c1` [compound 45, (2S)-2-{[2-(3,5-difluorophenyl)acetyl]amino}-N-(5-{3-(isopropoxymethyl)phenyl}-1,3-thiazol-2-yl)propanamide], the melting point came to 136 °C.

`C[C@H](NC(=O)[C@H](O)c1cc(F)cc(F)c1)C(=O)Nc1ncc(-c2ccccc2COC2CCCCC2)s1` (racemic) [Compound No. 50, (2S)-N-(5-{2-[(cyclohexyloxy)methyl]phenyl}-1,3-thiazol-2-yl)-2-{[(2R)-2-(3,5-difluorophenyl)-2-hydroxyacetyl]amino}propanamide] returned a melting point of 169 °C.

`CCC[C@H](NC(=O)Cc1cc(F)cc(F)c1)C(=O)Nc1nc(C)c(-c2ccccc2COC2CCN(C)CC2)s1` (as salt: phosphate) [compound 68, (2S)-N-(5-{2-[(N-methylpiperidin-4-yloxy)methyl]-phenyl}-4-methyl-1,3-thiazol-2-yl)-2-{[2-(3,5-difluorophenyl)acetyl]amino}pentanamide] returned a melting point of 186 °C.

Turning to `CCC[C@H](NC(=O)Cc1cc(F)cc(F)c1)C(=O)Nc1nc(C)c(-c2ccccc2COC(C)C)s1` [compound 71, (2S)-2-{[2-(3,5-difluorophenyl)acetyl]amino}-N-{5-[2-(isopropoxymethyl)phenyl]-4-methyl-1,3-thiazol-2-yl}pentanamide], the melting point amounted to 66.6 °C.

Compound `C[C@H](NC(=O)Cc1cccc(OC(F)(F)F)c1)C(=O)Nc1ncc(-c2ccccc2COC2CCCCC2)s1` [compound 48, (2S)-N-(5-{2-[(cyclohexyloxy)methyl]phenyl}-1,3-thiazol-2-yl)-2-{[2-(3-trifluoromethoxyphenyl)acetyl]-amino}propanamide] showed a melting point of 60 °C.

With `C[C@H](NC(=O)Cc1ccc(F)cc1)C(=O)Nc1ncc(-c2ccccc2COC2CCCCC2)s1` [compound 20, (2S)-N-(5-{2-[(cyclohexyloxy)methyl]phenyl}-1,3-thiazol-2-yl)-2-{[2-(4-fluorophenyl)acetyl]amino}-propanamide], the melting point turned out to be 70 °C.

`Cc1nc(NC(=O)[C@H](C)NC(=O)Cc2cc(F)cc(F)c2)sc1-c1ccccc1COC1CCCCC1` [compound 23, (2S)-N-(5-{2-[(cyclohexyloxy)methyl]phenyl}-4-methyl-1,3-thiazol-2-yl)-2-{[2-(3,5-difluorophenyl)-acetyl]amino}propanamide] showed a melting point of 85 °C.

`CCC[C@H](NC(=O)Cc1cc(F)cc(F)c1)C(=O)Nc1ncc(-c2ccccc2COC2CCCCC2)s1` [compound 42, (2S)-N-(5-{2-[(cyclohexyloxy)methyl]phenyl}-1,3-thiazol-2-yl)-2-{[2-(3,5-difluorophenyl)acetyl]amino}-pentanamide] showed a melting point of 134 °C.

Take `Cc1nc(NC(=O)C(C)NC(=O)Cc2cc(F)cc(F)c2)sc1-c1ccccc1COC1CCCC1` (stereo not drawn) [compound 14, N-(5-{2-[(cyclopentyloxy)methyl]phenyl}-4-methyl-1,3-thiazol-2-yl)-2-{[2-(3,5-difluorophenyl)acetyl]-amino}propanamide]: the melting point turned out to be 104 °C.

In the case of `COc1ccc(CC(=O)N[C@@H](C)C(=O)Nc2ncc(-c3ccccc3COC3CCCCC3)s2)cc1` [compound 33, (2S)-N-(5-{2-[(cyclohexyloxy)methyl]phenyl}-1,3-thiazol-2-yl)-2-{[2-(4-methoxyphenyl)acetyl]amino}-propanamide], the melting point was 74 °C.

`CCOCc1ccccc1-c1cnc(NC(=O)C(C)NC(=O)Cc2cc(F)cc(F)c2)s1` (stereo not drawn) [compound 3, 2-{[2-(3,5-difluorophenyl)acetyl]amino}-N-{5-[2-(ethoxymethyl)phenyl]-1,3-thiazol-2-yl}propanamide] registered a melting point of 165 °C.

`C[C@H](NC(=O)[C@@H](F)c1cc(F)cc(F)c1)C(=O)Nc1ncc(-c2ccccc2COC2CCCCC2)s1` [Compound No. 66, (2S)-N-(5-{2-[(cyclohexyloxy)methyl]phenyl}-1,3-thiazol-2-yl)-2-{[(2S)-2-(3,5-difluorophenyl)-2-fluoroacetyl]amino}propanamide] showed a melting point of 158 °C.

Take `CCc1nc(NC(=O)[C@H](C)NC(=O)Cc2cc(F)cc(F)c2)sc1-c1ccccc1COC1CCCCC1` [compound 62, (2S)-N-(5-{2-[(cyclohexyloxy)methyl]phenyl}-4-ethyl-1,3-thiazol-2-yl)-2-{[2-(3,5-difluorophenyl)-acetyl]amino}propanamide]: the melting point came out at 70 °C.

Take `C[C@@H](NC(=O)Cc1cc(F)cc(F)c1)C(=O)Nc1ncc(-c2ccccc2COC2CCCCC2)s1` [compound 25, (2R)-N-(5-{2-[(cyclohexyloxy)methyl]phenyl}-1,3-thiazol-2-yl)-2-{[2-(3,5-difluorophenyl)acetyl]amino}-propanamide]: the melting point was 95 °C.

As to `CCC[C@H](NC(=O)C(F)c1cc(F)cc(F)c1)C(=O)Nc1ncc(-c2ccccc2COC2CCCCC2)s1` (stereo partly drawn) [compound 67, (2S)-N-(5-{2-[(cyclohexyloxy)methyl]phenyl}-1,3-thiazol-2-yl)-2-{[2-(3,5-difluorophenyl)-2-fluoroacetyl]amino}pentanamide], the melting point worked out at 91 °C.

In turn, `CC[C@H](NC(=O)Cc1cc(F)cc(F)c1)C(=O)Nc1ncc(-c2ccccc2COC2CCCCC2)s1` [compound 32, (2S)-N-(5-{2-[(cyclohexyloxy)methyl]phenyl}-1,3-thiazol-2-yl)-2-{[2-(3,5-difluorophenyl)acetyl]amino}-butanamide] returned a melting point of 68 °C.

`C[C@H](NC(=O)Cc1cc(F)cc(F)c1)C(=O)Nc1ncc(-c2ccccc2COC2CCCCC2)s1` [Compound No. 26, (2S)-N-(5-{2-[(cyclohexyloxy)methyl]phenyl}-1,3-thiazol-2-yl)-2-{[2-(3,5-difluorophenyl)acetyl]amino}-propanamide]: the melting point turned out to be 140 °C.

`C[C@H](NC(=O)Cc1cc(F)cc(F)c1)C(=O)Nc1ncc(-c2ccccc2COc2ccccc2)s1` [compound 21, (2S)-2-{[2-(3,5-difluorophenyl)acetyl]amino}-N-{5-[2-(phenoxymethyl)phenyl]-1,3-thiazol-2-yl}propanamide] showed a melting point of 78 °C.

`C[C@H](NC(=O)Cc1cc(F)cc(F)c1)C(=O)Nc1ncc(-c2cccc(COCC3CCCCC3)c2)s1` [compound 43, (2S)-N-(5-{3-[(cyclohexylmethoxy)methyl]phenyl}-1,3-thiazol-2-yl)-2-{[2-(3,5-difluorophenyl)acetyl]amino}propanamide] registered a melting point of 144 °C.
